Each structure is given as a SMILES string. Converted amounts (≈) assume the structure as drawn.

The values below come from ChEMBL document CHEMBL3352232, “Discovery of pyridyl sulfonamide 11-beta-hydroxysteroid dehydrogenase type 1 (11β-HSD1) inhibitors for the treatment of metabolic disorders” (Bioorg Med Chem Lett, 2014).

Data set [1] in a line: Aqueous solubility of the compound. In kind it is physicochemical.
The target of data set [2] is 11-beta-hydroxysteroid dehydrogenase 1 (Homo sapiens, UniProt P28845). Nature of the data set: Inhibition of human 11-betaHSD1 by biochemical assay.
A short description of data set [3]: Stability in mouse liver microsomes assessed as compound remaining after 10 mins. To be noted: read-out: Stability. In kind it is ADME. A general note: Microsomes from liver hold many membrane-bound enzymes, among them those of drug oxidation.
Data set [4] can be described thus: Stability in rat liver microsomes assessed as compound remaining after 10 mins. In kind it is ADME. As to conditions: read-out: Stability; call rule not given here.
A short description of data set [5]: Stability in human liver microsomes assessed as compound remaining after 10 mins. As to conditions: read-out: Stability. In kind it is ADME.
Data set [6] addresses 11-beta-hydroxysteroid dehydrogenase 1 (Mus musculus, UniProt P50172). Nature of the data set: Inhibition of mouse 11-betaHSD1 by biochemical assay.

Chain of 11-beta-hydroxysteroid dehydrogenase 1 (Homo sapiens, UniProt P28845) (P28845 whole entry): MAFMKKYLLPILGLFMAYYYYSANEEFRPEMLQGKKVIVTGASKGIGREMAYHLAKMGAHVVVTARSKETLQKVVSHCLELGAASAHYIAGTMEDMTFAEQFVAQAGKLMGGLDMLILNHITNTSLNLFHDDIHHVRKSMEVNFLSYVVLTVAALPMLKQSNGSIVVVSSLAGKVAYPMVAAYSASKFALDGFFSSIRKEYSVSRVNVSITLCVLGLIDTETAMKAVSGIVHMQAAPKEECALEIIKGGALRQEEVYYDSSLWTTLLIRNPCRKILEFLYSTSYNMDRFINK
Chain of 11-beta-hydroxysteroid dehydrogenase 1 (Mus musculus, UniProt P50172) (P50172 whole entry): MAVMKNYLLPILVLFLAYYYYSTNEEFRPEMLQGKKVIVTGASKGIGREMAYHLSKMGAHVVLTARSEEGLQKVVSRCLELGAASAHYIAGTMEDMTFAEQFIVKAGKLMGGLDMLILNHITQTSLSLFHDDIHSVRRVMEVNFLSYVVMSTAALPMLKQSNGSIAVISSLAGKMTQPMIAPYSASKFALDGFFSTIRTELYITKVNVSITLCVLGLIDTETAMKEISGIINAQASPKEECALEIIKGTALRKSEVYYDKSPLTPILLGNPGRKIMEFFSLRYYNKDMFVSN

`CC1CCN(S(=O)(=O)c2cccc(-c3cccc(Cl)c3)n2)CC1`: the concentration in solution in data set [1] (solubility) was 1 µg/mL (≈ 2.85 µM). Also, inhibition in data set [2] was half-maximal at 310 nM (IC50).

For `N#Cc1ccc(-c2cccc(S(=O)(=O)N3CCC(N4CCCC4)CC3)n2)cc1`, in data set [1], the concentration in solution (solubility) was 270 µg/mL (≈ 681 µM). Also, the IC50 (usually the concentration needed to halve the response being measured) in data set [2] stood at 980 nM.

As for `N#Cc1ccc(-c2cccc(S(=O)(=O)N3CCC(N4CCOCC4)C3)n2)cc1` (centres undefined), in data set [1], the concentration in solution (solubility) was 14 µg/mL (≈ 35.1 µM). Besides, in data set [2], the IC50 came to 160 nM.

Take `CC1CCN(C(=O)c2ccc(CSc3ccc(Cl)cc3)cc2)CC1`: the IC50 in data set [2] stood at 160 nM.

As to `N#Cc1ccc(-c2cccc(S(=O)(=O)N3CCC(C4CCCCC4)CC3)n2)cc1`, in data set [1], the solubility (usually the dissolved amount per volume that the medium holds) is < 1 µg/mL. The IC50 in data set [2] was determined as 9 nM.

Compound `CC1CCN(S(=O)(=O)c2cccc(-c3ccc(C#N)cc3)n2)CC1` came in with a solubility in data set [1] of 2 µg/mL (≈ 5.86 µM). The IC50 in data set [2] was found to be 49 nM.

Turning to `O=S(=O)(c1cccc(-c2ccccc2)n1)N1CCC(N2CCOCC2)CC1`, in data set [1], the concentration in solution (solubility) was 48 µg/mL (≈ 124 µM). In addition, the figures for the remaining at 10 min in data set [3], in data set [4] and in data set [5] were 7%, 4% and 62%, respectively. The figures for the IC50 in data set [2] and in data set [6] were 30 nM and “Not Active”, respectively.

Compound `CC1CCN(S(=O)(=O)c2cccc(-c3ccc(Cl)cc3)n2)CC1` registered a solubility in data set [1] of 1 µg/mL (≈ 2.85 µM). This compound also registered an IC50 in data set [2] of 55 nM.
